Data from patent US6812228B2, “Benzoxazines for use in the treatment of parkinson's disease” (Warner-Lambert Company, priority 2000, dated 2004).
Read-outs that look alike come from different tables or passages of the source.

Legend:
[1] = molecular target: human muscarinic receptor subtype M3 (Homo sapiens, UniProt P20309); assay: Muscarinic receptor binding, displacement of [3H]-NMS, membranes from transfected CHO cells
Description: (§1) The compounds were evaluated in standard assays used to measure muscarinic receptor binding, and they were compared with other benzoxazines described in Bioorganic & Medicinal Chemistry Letters 8, 1998:1991-1996, which is incorporated herein by reference. Specifically, the compounds were evaluated for their binding affinity toward five human muscarinic receptor subtypes (M1-M5) by the method of Dorje et al., J. Pharm. Exp. Ther. 1991;256:727-733, which is incorporated herein by reference. The binding was determined by measuring the displacement of [^3H]-NMS (N-methylscopolamine) binding using membranes from transfected Chinese hamster ovary (CHO) cells.

[2] = molecular target: T1, human muscarinic receptor subtype M4 (Homo sapiens, UniProt P08173); assay: as above; details: for binds to the M4 receptor more than to M3 (selectivity): M4 versus M3; for bind to M4 more than some of the other subtypes (selectivity): M4 versus some of the other subtypes, upper figure (as much as)
T1 sequence (P08173 1-479): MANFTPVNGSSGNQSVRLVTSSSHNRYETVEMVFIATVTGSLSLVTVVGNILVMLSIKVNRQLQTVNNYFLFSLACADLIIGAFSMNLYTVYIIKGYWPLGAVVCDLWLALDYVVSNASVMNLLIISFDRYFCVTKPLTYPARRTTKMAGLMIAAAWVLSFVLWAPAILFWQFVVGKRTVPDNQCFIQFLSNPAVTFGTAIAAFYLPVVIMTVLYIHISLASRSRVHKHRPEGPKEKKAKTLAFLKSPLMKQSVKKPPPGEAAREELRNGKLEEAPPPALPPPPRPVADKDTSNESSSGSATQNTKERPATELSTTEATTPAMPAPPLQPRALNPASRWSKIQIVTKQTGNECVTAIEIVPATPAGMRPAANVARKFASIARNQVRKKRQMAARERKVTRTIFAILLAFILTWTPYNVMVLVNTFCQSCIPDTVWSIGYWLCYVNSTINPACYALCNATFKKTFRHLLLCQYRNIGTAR
Description: as §1

[3] = molecular target: T2, human muscarinic receptor subtype M2 (Homo sapiens, UniProt P08172); assay: as above
T2 sequence (P08172 1-466): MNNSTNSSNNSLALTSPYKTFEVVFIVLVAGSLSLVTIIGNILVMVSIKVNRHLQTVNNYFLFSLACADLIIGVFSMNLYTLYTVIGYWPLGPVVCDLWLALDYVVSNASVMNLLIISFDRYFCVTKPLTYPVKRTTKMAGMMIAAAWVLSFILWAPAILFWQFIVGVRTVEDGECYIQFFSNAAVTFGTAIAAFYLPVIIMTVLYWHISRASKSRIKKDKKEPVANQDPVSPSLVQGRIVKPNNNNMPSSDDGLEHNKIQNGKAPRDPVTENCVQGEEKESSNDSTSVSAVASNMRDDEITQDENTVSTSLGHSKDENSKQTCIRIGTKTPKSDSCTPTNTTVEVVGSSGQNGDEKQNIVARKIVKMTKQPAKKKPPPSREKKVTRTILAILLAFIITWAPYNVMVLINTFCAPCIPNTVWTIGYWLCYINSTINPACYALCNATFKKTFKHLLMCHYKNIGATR
Description: as §1

[4] = molecular target: T3, human muscarinic receptor subtype M5 (Homo sapiens, UniProt P08912); assay: as above
T3 sequence (P08912 1-532): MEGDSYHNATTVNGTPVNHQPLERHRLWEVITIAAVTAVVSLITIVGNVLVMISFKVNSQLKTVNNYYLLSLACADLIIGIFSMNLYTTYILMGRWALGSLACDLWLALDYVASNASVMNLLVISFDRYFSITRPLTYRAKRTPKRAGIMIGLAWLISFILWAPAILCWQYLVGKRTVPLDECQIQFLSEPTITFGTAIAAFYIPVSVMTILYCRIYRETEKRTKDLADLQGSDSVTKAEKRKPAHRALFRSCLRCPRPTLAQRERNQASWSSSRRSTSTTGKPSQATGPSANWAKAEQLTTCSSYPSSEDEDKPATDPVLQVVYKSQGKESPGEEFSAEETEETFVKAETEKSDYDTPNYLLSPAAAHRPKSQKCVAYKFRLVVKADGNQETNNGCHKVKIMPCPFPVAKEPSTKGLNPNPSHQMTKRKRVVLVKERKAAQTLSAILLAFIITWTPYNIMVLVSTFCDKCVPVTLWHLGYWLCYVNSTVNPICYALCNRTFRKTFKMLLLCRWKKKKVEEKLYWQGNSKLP
Description: as §1

[5] = molecular target: T4, human muscarinic receptor subtype M1 (Homo sapiens, UniProt P11229); assay: as above
T4 sequence (P11229 1-460): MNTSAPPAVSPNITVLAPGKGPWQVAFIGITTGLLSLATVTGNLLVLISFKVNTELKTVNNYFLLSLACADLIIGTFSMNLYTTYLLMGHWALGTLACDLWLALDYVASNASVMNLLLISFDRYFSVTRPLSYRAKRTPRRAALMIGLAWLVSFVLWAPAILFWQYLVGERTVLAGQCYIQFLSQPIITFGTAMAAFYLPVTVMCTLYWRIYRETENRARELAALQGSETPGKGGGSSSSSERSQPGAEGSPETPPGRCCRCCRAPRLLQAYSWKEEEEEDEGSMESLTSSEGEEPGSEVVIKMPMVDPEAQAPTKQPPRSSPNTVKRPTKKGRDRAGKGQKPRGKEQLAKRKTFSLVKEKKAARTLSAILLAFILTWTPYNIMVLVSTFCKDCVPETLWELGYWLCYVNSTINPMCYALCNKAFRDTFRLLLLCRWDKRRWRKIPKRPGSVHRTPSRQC
Description: as §1

[6] = [3H]-NMS displacement, CHO cell membranes, tested two to four times, SEM <=10%, read-out: Muscarinic Binding Activity M3 (IC50)
[7] = [3H]-NMS displacement, CHO cell membranes, tested two to four times, SEM <=10%, read-out: Muscarinic Binding Activity M4 (IC50)
[8] = [3H]-NMS displacement, CHO cell membranes, tested two to four times, SEM <=10%, read-out: Muscarinic Binding Activity M2 (IC50)
[9] = [3H]-NMS displacement, CHO cell membranes, tested two to four times, SEM <=10%, read-out: Muscarinic Binding Activity M5 (IC50)
[10] = [3H]-NMS displacement, CHO cell membranes, tested two to four times, SEM <=10%, read-out: Muscarinic Binding Activity M1 (IC50)

Chain of human muscarinic receptor subtype M3 (P20309 whole entry): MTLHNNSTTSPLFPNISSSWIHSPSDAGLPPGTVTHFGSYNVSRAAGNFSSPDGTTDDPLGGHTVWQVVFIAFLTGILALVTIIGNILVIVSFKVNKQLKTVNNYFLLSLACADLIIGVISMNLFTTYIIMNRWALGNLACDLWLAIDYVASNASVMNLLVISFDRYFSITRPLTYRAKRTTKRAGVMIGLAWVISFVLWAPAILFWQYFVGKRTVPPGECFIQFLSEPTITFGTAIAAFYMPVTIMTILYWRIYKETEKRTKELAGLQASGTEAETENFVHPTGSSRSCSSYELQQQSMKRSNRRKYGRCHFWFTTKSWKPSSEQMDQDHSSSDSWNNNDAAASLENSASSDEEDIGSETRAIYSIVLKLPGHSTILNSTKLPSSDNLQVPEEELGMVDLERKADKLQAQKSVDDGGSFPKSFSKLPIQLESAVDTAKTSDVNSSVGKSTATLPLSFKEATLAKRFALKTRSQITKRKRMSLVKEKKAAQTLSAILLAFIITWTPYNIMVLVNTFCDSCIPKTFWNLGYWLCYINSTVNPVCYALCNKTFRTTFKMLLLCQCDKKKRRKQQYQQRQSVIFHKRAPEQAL

Molecule `CCCc1[nH]c2ccc3c(c2c1C(=O)OCC)CN1CCc2cc(OC)ccc2C1O3` (stereo not drawn) [Example 1, 9-Methoxy-2-propyl-11,12-dihydro-3H,6αH,13H-6-oxa-3,12α-diaza-benzo[a]cyclopent[h]anthracene-1-carboxylic acid ethyl ester] has a melting point of 191 to 193 °C, an IC50 [1, 6] of 0.13 µM and an IC50 [2, 7] of 0.009 µM. It also gave an IC50 [3, 8] of 2 µM, an IC50 [4, 9] of 3.66 µM and an IC50 [5, 10] of 4.66 µM.

In the case of `CCCc1c(C(=O)OCC)c2c3c(ccc2n1C)OC1c2ccc(SC)cc2CCN1C3` (stereo not drawn) [Example 2, 3-Methyl-9-methylsulfanyl-2-propyl-11,12-dihydro-3H,6aH,13H-6-oxa-3,12a-diaza-benzo[a]cyclopent[h]anthracene-1-carboxylic acid ethyl ester], the melting point is reported as 139 to 143 °C, the IC50 [1, 6] is reported as 0.37 µM and the “binds to the M4 receptor more than to M1, M2, and M5 (selectivity)” value ([2]; M4 versus M1, M2 and M5) is reported as “about 1000 fold”. The “binds to the M4 receptor more than to M3 (selectivity)” value (from here on “binds … to M3 (selectivity)”) [2] was “about 52 fold”, the IC50 [2, 7] was 0.007 µM and the IC50 [3, 8] was 7 µM. It also gave an IC50 [4, 9] of 3 µM and an IC50 [5, 10] of 7.5 µM.

`CCCc1c(C(=O)OCC)c2c3c(ccc2n1C)OC1c2ccc(OC)cc2CCN1C3` (stereo not drawn) [Example 3, 9-Methoxy-3-methyl-2-propyl-11,12-dihydro-3H,6aH,13H-6-oxa-3,12a-diaza-benzo[a]cyclopent[h]anthracene-1-carboxylic acid ethyl ester] showed a melting point of 150 to 151 °C, an IC50 [1, 6] of 0.13 µM and an IC50 [2, 7] of 0.007 µM. It also gave an IC50 [3, 8] of 0.95 µM, an IC50 [4, 9] of 6 µM and an IC50 [5, 10] of 3 µM.

For `CCCc1[nH]c2ccc3c(c2c1C(=O)OCC)CN1CCc2cc(SC)ccc2C1O3` (stereo not drawn) [Example 4, 9-Methylsulfanyl-2-propyl-11,12-dihydro-3H,6aH,13H-6-oxa-3,12a-diaza-benzo[a]cyclopent[h]anthracene-1-carboxylic acid ethyl ester], the melting point was 185 to 186 °C, the IC50 [1, 6] was 0.2 µM and the “binds … to M3 (selectivity)” value [2] was “about 30 fold”. For the same molecule, the “bind to M4 more than some of the other subtypes (selectivity)” value [2] was “about 800 fold”, the IC50 [2, 7] was 0.006 µM and the IC50 [3, 8] was 2 µM. It also gave an IC50 [4, 9] of 3.5 µM and an IC50 [5, 10] of 1.4 µM.

With `CCCCc1[nH]c2ccc3c(c2c1C(=O)OCC)CN1CCc2cc(OC)ccc2C1O3` (stereo not drawn) [Example 5, 2-Butyl-9-methoxy-11,12-dihydro-3H,6aH,13H-6-oxa-3,12a-diaza-benzo[a]cyclopent[h]anthracene-1-carboxylic acid ethyl ester] the IC50 [1, 6] was 0.19 µM, the “binds … to M3 (selectivity)” value [2] was “about 30 fold” and the “bind to M4 more than some of the other subtypes (selectivity)” value [2] was “about 800 fold”. For the same molecule, the IC50 [2, 7] was 0.006 µM, the IC50 [3, 8] was 0.55 µM and the IC50 [4, 9] was 13 µM. The IC50 [5, 10] was 0.8 µM.

Molecule `CCCCc1[nH]c2ccc3c(c2c1C(=O)OCC)CN1CCc2cc(SC)ccc2C1O3` (stereo not drawn) [Example 6, 2-Butyl-9-methylsulfanyl-11,12-dihydro-3H,6aH,13H-6-oxa-3,12a-diaza-benzo[a]cyclopent[h]anthracene-1-carboxylic acid ethyl ester] has a melting point of 159 to 161 °C, an IC50 [1, 6] of 5 µM and an IC50 [2, 7] of 0.01 µM. It also gave an IC50 [3, 8] of 4 µM, an IC50 [4, 9] of 2 µM and an IC50 [5, 10] of 2 µM.

`CCCCCc1[nH]c2ccc3c(c2c1C(=O)OCC)CN1CCc2cc(OC)ccc2C1O3` (stereo not drawn) [Example 7, 9-Methoxy-2-pentyl-11,12-dihydro-3H,6aH,13H-6-oxa-3,12a-diaza-benzo[a]cyclopent[h]anthracene-1-carboxylic acid ethyl ester] showed a melting point of 170 to 172 °C, an IC50 [1, 6] of 0.2 µM and an IC50 [2, 7] of 0.01 µM. For the same molecule, the IC50 [3, 8] was 0.6 µM, the IC50 [4, 9] was 10 µM and the IC50 [5, 10] was 50 µM.

With `CCCCCCc1[nH]c2ccc3c(c2c1C(=O)OCC)CN1CCc2cc(OC)ccc2C1O3` (stereo not drawn) [Example 8, 2-Hexyl-9-methoxy-11,12-dihydro-3H,6aH,13H-6-oxa-3,12a-diaza-benzo[a]cyclopent[h]anthracene-1-carboxylic acid ethyl ester] the melting point was 157 to 160 °C, the IC50 [1, 6] was 0.4 µM and the IC50 [2, 7] was 0.03 µM. The IC50 [3, 8] was 0.8 µM, the IC50 [4, 9] was 3 µM and the IC50 [5, 10] was 2 µM.

Molecule `CCOC(=O)c1c(CC)n(CC)c2ccc3c(c12)CN1CCc2cc(OC)ccc2C1O3` (stereo not drawn) [Prior Art Compound Et/Et/9-OMe/Et, reference compound] has an IC50 [1] of 0.05 µM, an IC50 [2] of 0.02 µM and an IC50 [3] of 1 µM. It also gave an IC50 [4] of 5 µM and an IC50 [5] of 5 µM.

With `CCOC(=O)c1c(CC)[nH]c2ccc3c(c12)CN1CCc2cc(OC)ccc2C1O3` (stereo not drawn) [Prior Art Compound Et/Et/9-OMe/H, reference compound] the IC50 [1, 6] was 0.2 µM, the IC50 [2, 7] was 0.02 µM and the IC50 [3, 8] was 2 µM. It also gave an IC50 [4, 9] of 6 µM and an IC50 [5, 10] of 2 µM.

`CCOC(=O)c1c(C)n(CC)c2ccc3c(c12)CN1CCc2cc(OC)ccc2C1O3` (stereo not drawn) [Prior Art Compound Et/Me/9-OMe/Et, reference compound] gave an IC50 [1] of 0.5 µM, an IC50 [2] of 0.05 µM and an IC50 [3] of 0.4 µM. For the same molecule, the IC50 [4] was 3 µM and the IC50 [5] was 2 µM.

In the case of `CCOC(=O)c1c(C)[nH]c2ccc3c(c12)CN1CCc2cc(OC)ccc2C1O3` (stereo not drawn) [Prior Art Compound Et/Me/9-OMe/H, reference compound], the IC50 [1, 6] is reported as 0.5 µM, the IC50 [2, 7] is reported as 0.03 µM and the IC50 [3, 8] is reported as 1 µM. It also gave an IC50 [4, 9] of 6 µM and an IC50 [5, 10] of 3 µM.

`CCOC(=O)c1c(C)n(C)c2ccc3c(c12)CN1CCc2cc(OC)ccc2C1O3` (stereo not drawn) [Prior Art Compound Et/Me/9-OMe/Me, reference compound] gave an IC50 [1, 6] of 0.4 µM, an IC50 [2, 7] of 0.05 µM and an IC50 [3, 8] of 0.4 µM. The IC50 [4, 9] was 1 µM and the IC50 [5, 10] was 0.5 µM.
